According to patent US8034314B2, “Photoreactive compound specifically binding to calcium binding proteins” (priority 2004, dated 2011):

What was measured:
[1] = system: mitochondrial uniporter (Ca2+ uptake in mitochondria); assay: Ca2+ uptake/accumulation in isolated mitochondria; type: biochemical, rat
Experimental: (§1) Sarcoplasmic reticulum (SR) membranes were prepared from rabbit fast twitch skeletal muscle as described by Saito [Saito et al.: J. Cell Biol. 99 (1984) 875-85]. Mitochondria were isolated from rat liver as described by us previously [Gincel D. et al.: Biochem J. 358 (2001) 147-55]. VDAC was purified by a method developed in our laboratory, using columns of hydroxyapatite and reactive red agarose [Gincel D. et al.: J. Bioenerget. Biomembr. 32 (2000) 571-83].
(§2) Ca^2+-accumulation in freshly prepared mitochondria (0.5 mg/ml) was assayed for 1 to 20 minutes at 30° C. in the presence of 225 mM mannitol, 75 mM sucrose, 120 μM CaCl2 (containing 3×10^4 cpm/nmol ^45Ca^2+), 5 mM HEPES/KOH pH 7.0, and 5 mM succinate with 0.1 mM Pi, or 4 mM MgCl2 with 3 mM ATP. The Ca^2+-uptake was terminated by rapid Millipore filtration, followed by a wash with 5 ml of 0.15 M KCl. The Ca^2+-accumulation in SR was determined as described previously [Shoshan-Barmatz V. & Shaineberg A.: Biochim. Biophys. Acta 1065 (1991) 82-8]. Electron transport from succinate to cytochrome c was described in above cited article [Gincel D. et al.: J. Bioenerget. Biomembr. 32 (2000) 571-83].
The effect of AzRu on mitochondrial process of electron transport from the donor succinate to the acceptor cytochrome c was characterized as described above. Although said electron transfer involves several dozens electron transfer carriers, this reaction was not affected by azido-ruthenium of this invention.
(§3) The hexavalent RuR and the trivalent Ru360 have been employed in various studies as inhibitors of Ca^2+-dependent reactions. As shown here, even with no photoactivation, AzRu, in contrast to RuR and Ru360, was effective in inhibiting the SR Ca^2+-pump (Table 3). […] This may open the way to inhibit other Ca^2+-dependent activities that are not sensitive to RuR, such as the plasma membrane Ca^2+-ATPase. […] RuR was employed to improve mitochondrial production in ischemic reperfused pig myocardium, was employed in the nervous system to follow neuronal death progress and can act as an anti-oxidant in certain conditions. Considering the potent activity of AzRu in RuR-insensitive reactions (see Table 3), its applications in various biological studies should be explored. Ca^2+ accumulation in SR and mitochondria was assayed as described above in the absence and presence of different concentrations of RuR (0.05-100 μM), Ru360 (0.01-100 μM) or AzRu (0.1-100 μM). The concentration required for 50% inhibition (IC50) was derived from the plot of Ca^2+ accumulation activity or ryanodine binding as a function of the reagent concentration. The results are the mean±SEM of 3 to 5 experiments (Table 3).

Pyruvate kinase = biological target: T1, Pyruvate kinase (Oryctolagus cuniculus, UniProt P11974); assay: Pyruvate kinase activity; type: biochemical; settings: mean ± SEM
T1 construct: purchased Sigma
From the text: (§4) Unlabelled ryanodine was obtained from Calbiochem. […] Ruthenium chloride was purchased from Aldrich.

Ca2+-dependent proteins = assay: Activities of Ca2+-dependent proteins (summary of Table 1); type: biochemical; settings: at ≦20 μM
[2] = biological target: T2, Ca2+-pump (SERCA) of skeletal muscle sarcoplasmic reticulum (Oryctolagus cuniculus, UniProt P04191); assay: Ca2+ uptake/accumulation in SR membranes (Ca2+-pump activity); type: biochemical, rabbit
T2 construct: Sarcoplasmic reticulum (SR) membranes were prepared from rabbit fast twitch skeletal muscle; from tissue; host or cells: rabbit fast twitch skeletal muscle SR membranes
Experimental: as §1, §2
The preparation of SR membranes from skeletal muscle, and the measurement of Ca^2+-accumulation were carried out as described above.
as §3

Aldolase = biological target: T3, Aldolase (Oryctolagus cuniculus, UniProt P00883); assay: Aldolase activity; type: biochemical; settings: AzRu 100 μM; mean ± SEM
T3 construct: purchased Sigma
From the text: as §4

[3] = system: Succinate-cytochrome c oxido-reductase; assay: Electron transport from succinate to cytochrome c in mitochondria; type: biochemical, rat
Experimental: as §1, §2
The effect of AzRu on mitochondrial process of electron transport from the donor succinate to the acceptor cytochrome c was characterized as described above. […]

Brain hexokinase = Brain hexokinase (Homo sapiens, UniProt P19367); assay: Brain hexokinase activity; type: biochemical; settings: mean ± SEM
Alkaline phosphatase = settings: AzRu 100 μM; mean ± SEM
From the text: Aldolase, alkaline phosphatase, ATP, bovine liver catalase, choline oxidase, CM-cellulose, n-decane, glucose 6-phosphate dehydrogenase, glutamate dehydrogenase, glyceraldehyde 3-phosphate dehydrogenase, Hepes, yeast hexokinase, lactate dehydrogenase, leupeptin, luciferase, mannitol, horseradish peroxidase, PMSF, pyruvate kinase, soybean asolectin, sucrose, Tris and Triton X-100 were purchased from Sigma (St. Louis, Mo., USA). [^45Ca], [^103Ru] and [^3H]ryanodine were purchased from NEN® Life Science Products, Inc. (Boston, USA). Unlabelled ryanodine was obtained from Calbiochem. Sephadex LH-20 was purchased from Amersham Biosciences. n-Octyl-β-D-glucopyranoside (β-OG) was obtained from Bachem AG (Germany). Lauryl-(dimethyl)-amineoxide (LDAO) and ruthenium red (98% pure) were obtained from Fluka (Chemie, GmbH). Ruthenium chloride was purchased from Aldrich. Hydroxyapatite (Bio-Gel HTP) was purchased from Bio-Rad Laboratories (Hercules, Calif.) and Celite from Merck. Synthetic firefly D-luciferin reagent was purchased from Biosynth AG.

[4] = system: glyceraldehyde 3-phosphate dehydrogenase; assay: GAP dehydrogenase activity; type: biochemical; settings: AzRu 100 μM; mean ± SEM
From the text: as §4

VDAC = biological target: T4, VDAC (Rattus norvegicus, UniProt Q9Z2L0); assay: VDAC channel conductance in planar lipid bilayer; type: biochemical
T4 construct: VDAC was purified by a method developed in our laboratory, using columns of hydroxyapatite and reactive red agarose; from tissue; host or cells: mitochondria
Experimental: as §1
Reconstitution of purified VDAC into planar lipid bilayer (PLB), single channel current recording, and data analysis were carried out as described in above mentioned publication.
VDAC is a channel protein which transports Ca^2+ across the mitochondrial outer membrane. […] Purified VDAC was reconstituted into a planar lipid bilayer as multichannels. The channel activity was measured as the ions passed the current across the bilayer in response to a voltage gradient of 10 mV, as a function of time. In the absence of AzRu, VDAC is stable in a long-lived, fully opened state and remains open for up to 2 hours of recording. However, addition of AzRu to the same channel induced VDAC closure, in a time-dependent manner. Ca^2+, in the presence of 1 M NaCl, prevented the inhibitory effect of AzRu on VDAC activity.

K+ channel (KCKN0) = K+ channel (KCKN0) (Drosophila melanogaster, UniProt Q94526); assay: K+ channel (KCKN0) activity; type: biochemical; settings: AzRu 20 μM; mean ± SEM
CaMKII-dependent GAPDH = CaMKII-dependent GAPDH activity; type: biochemical; settings: AzRu 20 μM; mean ± SEM
Glutamate dehydrogenase = Glutamate dehydrogenase activity; type: biochemical; settings: AzRu 100 μM; mean ± SEM
From the text: as §4

T2 sequence (P04191 1-994 isoform P04191-2): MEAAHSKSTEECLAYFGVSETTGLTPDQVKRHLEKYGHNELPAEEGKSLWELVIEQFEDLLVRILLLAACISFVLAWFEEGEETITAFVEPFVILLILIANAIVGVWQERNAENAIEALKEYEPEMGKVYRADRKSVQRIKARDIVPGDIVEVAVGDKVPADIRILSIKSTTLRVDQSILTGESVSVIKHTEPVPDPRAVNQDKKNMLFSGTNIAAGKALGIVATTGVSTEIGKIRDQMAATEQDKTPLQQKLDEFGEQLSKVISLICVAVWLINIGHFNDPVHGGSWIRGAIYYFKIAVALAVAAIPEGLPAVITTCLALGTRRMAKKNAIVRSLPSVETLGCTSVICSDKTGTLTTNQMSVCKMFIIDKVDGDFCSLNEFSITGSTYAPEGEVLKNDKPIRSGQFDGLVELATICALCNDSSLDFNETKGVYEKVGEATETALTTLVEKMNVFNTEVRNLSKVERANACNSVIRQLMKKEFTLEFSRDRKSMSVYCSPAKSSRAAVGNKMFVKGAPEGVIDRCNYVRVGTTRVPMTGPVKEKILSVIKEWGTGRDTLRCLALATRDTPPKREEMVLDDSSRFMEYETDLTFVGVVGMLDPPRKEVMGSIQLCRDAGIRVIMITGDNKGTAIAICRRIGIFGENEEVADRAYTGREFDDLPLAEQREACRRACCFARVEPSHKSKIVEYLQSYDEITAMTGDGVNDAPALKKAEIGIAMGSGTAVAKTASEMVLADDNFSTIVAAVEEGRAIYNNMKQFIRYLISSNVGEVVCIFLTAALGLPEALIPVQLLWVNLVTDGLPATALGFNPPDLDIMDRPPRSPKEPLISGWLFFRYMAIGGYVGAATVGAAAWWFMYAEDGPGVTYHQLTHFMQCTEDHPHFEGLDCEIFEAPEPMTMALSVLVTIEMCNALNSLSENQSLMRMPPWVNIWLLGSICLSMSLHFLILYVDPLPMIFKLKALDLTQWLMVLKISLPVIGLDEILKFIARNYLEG
T4 sequence (Q9Z2L0 whole entry): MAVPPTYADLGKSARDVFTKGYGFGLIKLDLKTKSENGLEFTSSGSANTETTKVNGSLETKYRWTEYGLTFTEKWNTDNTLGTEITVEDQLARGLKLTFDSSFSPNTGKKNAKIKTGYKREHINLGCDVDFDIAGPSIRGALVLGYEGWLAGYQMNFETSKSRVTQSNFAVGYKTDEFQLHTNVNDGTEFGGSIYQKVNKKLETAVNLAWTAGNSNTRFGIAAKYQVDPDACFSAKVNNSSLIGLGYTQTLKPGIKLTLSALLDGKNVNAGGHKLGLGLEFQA
Sequence of Brain hexokinase (P19367 whole entry): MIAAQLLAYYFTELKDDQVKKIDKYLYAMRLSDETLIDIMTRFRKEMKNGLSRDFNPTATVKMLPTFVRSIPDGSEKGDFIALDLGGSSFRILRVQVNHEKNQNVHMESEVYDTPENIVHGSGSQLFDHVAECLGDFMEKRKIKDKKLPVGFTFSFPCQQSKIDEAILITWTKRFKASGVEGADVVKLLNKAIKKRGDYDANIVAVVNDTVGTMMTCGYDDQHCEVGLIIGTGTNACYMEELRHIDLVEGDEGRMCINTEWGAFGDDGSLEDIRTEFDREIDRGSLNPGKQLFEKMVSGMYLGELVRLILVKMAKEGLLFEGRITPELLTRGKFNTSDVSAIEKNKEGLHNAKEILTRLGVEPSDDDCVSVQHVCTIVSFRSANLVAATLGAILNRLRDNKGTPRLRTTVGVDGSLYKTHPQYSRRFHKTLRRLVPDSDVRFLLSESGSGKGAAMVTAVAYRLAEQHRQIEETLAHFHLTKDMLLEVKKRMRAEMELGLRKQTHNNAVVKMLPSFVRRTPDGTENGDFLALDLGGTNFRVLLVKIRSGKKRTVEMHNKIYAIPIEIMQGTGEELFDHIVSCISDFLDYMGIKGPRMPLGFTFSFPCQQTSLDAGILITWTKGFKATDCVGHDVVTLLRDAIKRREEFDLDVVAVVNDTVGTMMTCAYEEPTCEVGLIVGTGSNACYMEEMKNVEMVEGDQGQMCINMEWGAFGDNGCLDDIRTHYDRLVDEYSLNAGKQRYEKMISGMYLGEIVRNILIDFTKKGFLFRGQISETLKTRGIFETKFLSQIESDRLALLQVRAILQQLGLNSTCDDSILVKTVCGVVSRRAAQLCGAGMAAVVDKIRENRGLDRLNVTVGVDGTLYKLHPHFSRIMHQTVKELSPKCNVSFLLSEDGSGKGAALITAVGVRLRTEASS
T1 sequence (P11974 2-531 limits assumed): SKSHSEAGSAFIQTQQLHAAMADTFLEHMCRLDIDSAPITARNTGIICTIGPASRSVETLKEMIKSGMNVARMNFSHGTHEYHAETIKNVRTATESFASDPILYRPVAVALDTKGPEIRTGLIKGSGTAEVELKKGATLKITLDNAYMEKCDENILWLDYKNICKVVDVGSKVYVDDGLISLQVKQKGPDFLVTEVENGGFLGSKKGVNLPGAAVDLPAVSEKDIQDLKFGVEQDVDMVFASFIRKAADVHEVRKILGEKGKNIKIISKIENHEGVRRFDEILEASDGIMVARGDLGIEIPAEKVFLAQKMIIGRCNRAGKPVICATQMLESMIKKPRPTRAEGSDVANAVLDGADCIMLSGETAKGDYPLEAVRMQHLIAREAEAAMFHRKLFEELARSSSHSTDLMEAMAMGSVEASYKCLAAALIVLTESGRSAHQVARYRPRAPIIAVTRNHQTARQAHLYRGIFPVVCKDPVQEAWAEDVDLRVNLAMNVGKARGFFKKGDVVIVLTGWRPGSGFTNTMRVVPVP
T3 sequence (P00883 2-364 limits assumed): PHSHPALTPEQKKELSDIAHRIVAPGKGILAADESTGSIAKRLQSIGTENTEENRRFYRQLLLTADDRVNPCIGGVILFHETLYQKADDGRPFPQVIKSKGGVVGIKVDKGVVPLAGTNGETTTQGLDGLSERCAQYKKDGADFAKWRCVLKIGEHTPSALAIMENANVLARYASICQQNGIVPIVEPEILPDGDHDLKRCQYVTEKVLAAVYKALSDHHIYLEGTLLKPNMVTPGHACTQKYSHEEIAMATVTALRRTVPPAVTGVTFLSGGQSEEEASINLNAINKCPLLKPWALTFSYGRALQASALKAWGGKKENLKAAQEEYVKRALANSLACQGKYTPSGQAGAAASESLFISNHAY
Sequence of K+ channel (KCKN0) (Q94526 whole entry): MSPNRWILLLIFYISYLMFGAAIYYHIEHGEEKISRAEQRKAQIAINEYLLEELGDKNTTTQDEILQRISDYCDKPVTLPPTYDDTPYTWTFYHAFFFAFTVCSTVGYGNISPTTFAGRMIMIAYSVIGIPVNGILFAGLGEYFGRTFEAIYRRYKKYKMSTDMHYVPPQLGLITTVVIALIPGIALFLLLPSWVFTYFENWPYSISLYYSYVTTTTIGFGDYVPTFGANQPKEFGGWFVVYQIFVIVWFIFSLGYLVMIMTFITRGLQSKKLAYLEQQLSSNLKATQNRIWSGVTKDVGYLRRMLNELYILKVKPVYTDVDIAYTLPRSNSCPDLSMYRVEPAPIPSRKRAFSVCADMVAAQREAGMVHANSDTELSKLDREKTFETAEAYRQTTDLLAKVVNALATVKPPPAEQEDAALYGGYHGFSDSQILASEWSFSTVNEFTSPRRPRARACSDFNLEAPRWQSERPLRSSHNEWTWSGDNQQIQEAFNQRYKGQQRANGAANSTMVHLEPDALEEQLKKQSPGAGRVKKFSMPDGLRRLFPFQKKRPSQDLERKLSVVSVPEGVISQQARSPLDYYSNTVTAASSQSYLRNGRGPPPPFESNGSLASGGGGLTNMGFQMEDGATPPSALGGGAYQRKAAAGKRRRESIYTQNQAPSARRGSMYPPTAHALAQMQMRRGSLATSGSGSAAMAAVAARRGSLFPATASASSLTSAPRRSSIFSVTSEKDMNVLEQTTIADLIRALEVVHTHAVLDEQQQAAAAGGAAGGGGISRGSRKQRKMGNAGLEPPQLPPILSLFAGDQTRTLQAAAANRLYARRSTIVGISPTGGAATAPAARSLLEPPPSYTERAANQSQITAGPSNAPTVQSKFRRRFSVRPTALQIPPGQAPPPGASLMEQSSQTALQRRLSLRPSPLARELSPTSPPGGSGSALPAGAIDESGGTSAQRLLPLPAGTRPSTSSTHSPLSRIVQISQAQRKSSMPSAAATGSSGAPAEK

## azido-ruthenium [AzRu]
[1]; isolated mitochondria, FIG. 7
  Effect on Ca2+ transport in mitochondria: inhibited
[1]; no UV, mean ± SEM of 3 to 5 experiments
  IC50: 1780 ± 120 nM
Pyruvate kinase; AzRu 20 μM
  Activity (% of control), Pyruvate kinase: 97 ± 7 % of control
Pyruvate kinase; AzRu 100 μM
  Activity (% of control), Pyruvate kinase: 81 ± 6 % of control
Ca2+-dependent proteins
  Inhibition of activities of Ca2+-dependent proteins: up to 90%
[2]; +UV (photoactivation), mean ± SEM
  IC50: 1010 ± 95 nM
[2]; AzRu 20 μM, mean ± SEM of 3 to 6 experiments
  Activity (% of control), Ca2+ uptake in SR (SERCA): 13 ± 6 % of control
[2]; UV irradiation, SR membranes
  Change of sensitivity of the Ca2+-pump activity to the reagent by photoactivation: increased more than two-fold
[2]; no photoactivation, mean ± SEM of 3 to 5 experiments
  IC50: 4910 ± 55 nM
Aldolase
  Activity (% of control), Aldolase: 78 ± 7 % of control
[3]; AzRu 100 μM, mean ± SEM
  Activity (% of control), Succinate-cytochrome c oxido-reductase: 95 ± 5 % of control
[3]; isolated mitochondria, FIG. 7
  Effect on electron transfer from succinate to cytochrome c in mitochondria: not affected
Brain hexokinase; AzRu 20 μM
  Activity (% of control), Brain hexokinase: 73 ± 7 % of control
Brain hexokinase; AzRu 100 μM
  Activity (% of control), Brain hexokinase: 61 ± 3 % of control
Alkaline phosphatase
  Activity (% of control), Alkaline phosphatase: 86 ± 5 % of control
[4]
  Activity (% of control), GAP dehydrogenase: 102 ± 5 % of control
VDAC; AzRu 20 μM, mean ± SEM
  Activity (% of control), VDAC conductance: 19 ± 5 % of control
VDAC; all voltages tested
  Effect on VDAC conductance in multi-channel experiments: decreased VDAC conductance
VDAC; purified VDAC in planar lipid bilayer, voltage gradient 10 mV
  Effect on VDAC channel activity: inhibited the channel activity of VDAC
K+ channel (KCKN0)
  Activity (% of control), K+ channel (KCKN0): 100 ± 0.3 % of control
CaMKII-dependent GAPDH
  Activity (% of control), CaMKII-dependent GAPDH: 6 ± 2 % of control
Glutamate dehydrogenase
  Activity (% of control), Glutamate dehydrogenase: 101 ± 5 % of control
